Measurements taken from the supplement of paper PMC10883282.
± gives the standard deviation of the averaged measurements.

Assays:
Test in all cases: relative viability vs DMSO control (72 h) (fraction); higher = more viable cells
[1] = tested on: HT1080
How it was run: (§1)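 Sarcoma cell lines were seeded in 384-well plates at densities chosen for 80–90% confluence, then 24 h later given 2.5 µl of serially diluted compound drawn from source plates spanning 10 mM to 0.0002 mM. They were held 72 h at 37 °C, 5% CO2, with 0.1% DMSO vehicle and a 5 µM positive control included. Relative viability was read with ATPLite as percent growth and averaged over up to triplicate wells. Rescaling placed full at 1 and none at 0.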

[2] = tested on: SW872
How it was run: as §1

[3] = tested on: SW1353
How it was run: as §1

[4] = tested on: KHOS-NP
How it was run: as §1

[5] = tested on: RD-ES
How it was run: as §1

[6] = tested on: MES-SA
How it was run: as §1

[7] = tested on: SK-ES-1
How it was run: as §1

[8] = tested on: SW684
How it was run: as §1

[9] = tested on: SK-LMS-1
How it was run: as §1

[10] = tested on: G401
How it was run: as §1

[11] = tested on: VA-ES-BJ
How it was run: as §1

[12] = tested on: RD
How it was run: as §1

CCOc1cc2ncc(C#N)c(Nc3ccc(OCc4ccccn4)c(Cl)c3)c2cc1NC(=O)/C=C/CN(C)C [Neratinib]
Conditions	relative viability
[1], 0.00017 µM	1.05 ± 0.026
[1], 0.00051 µM	1.05 ± 0.023
[1], 0.00152 µM	1.028 ± 0.0081
[1], 0.00457 µM	1.04 ± 0.013
[1], 0.01372 µM	1.047 ± 0.0033
[1], 0.04115 µM	1.07 ± 0.038
[1], 0.1235 µM	1.08 ± 0.019
[1], 0.3704 µM	0.992 ± 0.049
[1], 1.111 µM	0.726 ± 0.03
[1], 3.333 µM	0.603 ± 0.031
[1], 10 µM	0.00637 ± 0.00081
[2], 0.00017 µM	1.03 ± 0.089
[2], 0.00051 µM	1.02 ± 0.092
[2], 0.00152 µM	1.03 ± 0.076
[2], 0.00457 µM	1.03 ± 0.06
[2], 0.01372 µM	1.01 ± 0.042
[2], 0.04115 µM	0.97 ± 0.048
[2], 0.1235 µM	0.932 ± 0.036
[2], 0.3704 µM	0.76 ± 0.077
[2], 1.111 µM	0.609 ± 0.021
[2], 3.333 µM	0.492 ± 0.013
[2], 10 µM	-0.00553 ± 0.0012
[3], 0.00017 µM	0.971 ± 0.076
[3], 0.00051 µM	0.955 ± 0.016
[3], 0.00152 µM	0.923 ± 0.02
[3], 0.00457 µM	0.934 ± 0.019
[3], 0.01372 µM	0.899 ± 0.02
[3], 0.04115 µM	0.807 ± 0.035
[3], 0.1235 µM	0.71 ± 0.019
[3], 0.3704 µM	0.568 ± 0.021
[3], 1.111 µM	0.525 ± 0.019
[3], 3.333 µM	0.426 ± 0.091
[3], 10 µM	0.0062 ± 0.0002
[4], 0.00017 µM	1.042 ± 0.0062
[4], 0.00051 µM	1.022 ± 0.0094
[4], 0.00152 µM	1.022 ± 0.0052
[4], 0.00457 µM	1.01 ± 0.027
[4], 0.01372 µM	1.04 ± 0.027
[4], 0.04115 µM	1.01 ± 0.024
[4], 0.1235 µM	1.05 ± 0.023
[4], 0.3704 µM	1.02 ± 0.079
[4], 1.111 µM	0.73 ± 0.04
[4], 3.333 µM	0.484 ± 0.034
[4], 10 µM	0.486 ± 0.027
[5], 0.00017 µM	1.03 ± 0.011
[5], 0.00051 µM	1.01 ± 0.029
[5], 0.00152 µM	0.999 ± 0.02
[5], 0.00457 µM	0.996 ± 0.057
[5], 0.01372 µM	0.997 ± 0.028
[5], 0.04115 µM	0.977 ± 0.051
[5], 0.1235 µM	0.938 ± 0.022
[5], 0.3704 µM	0.737 ± 0.042
[5], 1.111 µM	0.498 ± 0.013
[5], 3.333 µM	0.431 ± 0.014
[5], 10 µM	0.345 ± 0.12
[6], 0.00017 µM	0.903 ± 0.041
[6], 0.00051 µM	0.889 ± 0.029
[6], 0.00152 µM	0.924 ± 0.02
[6], 0.00457 µM	0.913 ± 0.03
[6], 0.01372 µM	0.897 ± 0.025
[6], 0.04115 µM	0.869 ± 0.036
[6], 0.1235 µM	0.79 ± 0.011
[6], 0.3704 µM	0.517 ± 0.034
[6], 1.111 µM	0.348 ± 0.02
[6], 3.333 µM	0.282 ± 0.0036
[6], 10 µM	0.0189 ± 0.023
[7], 0.00017 µM	1.05 ± 0.033
[7], 0.00051 µM	1.02 ± 0.044
[7], 0.00152 µM	1.04 ± 0.023
[7], 0.00457 µM	1.01 ± 0.03
[7], 0.01372 µM	1.01 ± 0.08
[7], 0.04115 µM	0.963 ± 0.043
[7], 0.1235 µM	0.797 ± 0.017
[7], 0.3704 µM	0.397 ± 0.031
[7], 1.111 µM	0.298 ± 0.011
[7], 3.333 µM	0.235 ± 0.0077
[7], 10 µM	0.00187 ± 0.00038
[8], 0.00017 µM	1.16 ± 0.039
[8], 0.00051 µM	1.1 ± 0.024
[8], 0.00152 µM	1.11 ± 0.029
[8], 0.00457 µM	1.13 ± 0.054
[8], 0.01372 µM	1.16 ± 0.018
[8], 0.04115 µM	1.116 ± 0.0094
[8], 0.1235 µM	1.06 ± 0.065
[8], 0.3704 µM	0.848 ± 0.013
[8], 1.111 µM	0.826 ± 0.06
[8], 3.333 µM	0.792 ± 0.022
[8], 10 µM	-0.0161 ± 0.0023
[9], 0.00017 µM	1.03 ± 0.041
[9], 0.00051 µM	1 ± 0.017
[9], 0.00152 µM	1.06 ± 0.016
[9], 0.00457 µM	1.02 ± 0.021
[9], 0.01372 µM	1.08 ± 0.025
[9], 0.04115 µM	1.06 ± 0.02
[9], 0.1235 µM	0.943 ± 0.019
[9], 0.3704 µM	0.724 ± 0.0085
[9], 1.111 µM	0.698 ± 0.026
[9], 3.333 µM	0.646 ± 0.0067
[9], 10 µM	0.0104 ± 0.0004
[10], 0.00017 µM	1.02 ± 0.021
[10], 0.00051 µM	1 ± 0.035
[10], 0.00152 µM	0.998 ± 0.019
[10], 0.00457 µM	0.992 ± 0.015
[10], 0.01372 µM	1 ± 0.025
[10], 0.04115 µM	0.95 ± 0.023
[10], 0.1235 µM	0.93 ± 0.038
[10], 0.3704 µM	0.791 ± 0.012
[10], 1.111 µM	0.692 ± 0.026
[10], 3.333 µM	0.56 ± 0.082
[10], 10 µM	0.0616 ± 0.05
[11], 0.00017 µM	0.999 ± 0.021
[11], 0.00051 µM	1.01 ± 0.037
[11], 0.00152 µM	1.02 ± 0.014
[11], 0.00457 µM	1 ± 0.013
[11], 0.01372 µM	0.969 ± 0.037
[11], 0.04115 µM	0.92 ± 0.012
[11], 0.1235 µM	0.891 ± 0.02
[11], 0.3704 µM	0.734 ± 0.026
[11], 1.111 µM	0.503 ± 0.017
[11], 3.333 µM	0.483 ± 0.02
[11], 10 µM	0.46 ± 0.015
[12], 0.00017 µM	1.12 ± 0.072
[12], 0.00051 µM	1.1 ± 0.069
[12], 0.00152 µM	1.11 ± 0.067
[12], 0.00457 µM	1.11 ± 0.074
[12], 0.01372 µM	1.09 ± 0.041
[12], 0.04115 µM	1.072 ± 0.0048
[12], 0.1235 µM	0.95 ± 0.089
[12], 0.3704 µM	0.714 ± 0.079
[12], 1.111 µM	0.562 ± 0.026
[12], 3.333 µM	0.384 ± 0.021
[12], 10 µM	0.0033 ± 0.0017
